What was measured:
Assay type in all cases: cell-based, human
HCT116 cells [1] = assay: Wound-healing and Transwell migration assays, HCT116; conditions: 10 μM for 48 h, HCT116 stable cells, wound healing 24 h (FIG. 14(e))
Protocol: Then, HCT116 cells transfected with miR-338-5p were assessed for cell migration in vitro with a wound-healing assay analyzed at 24 h and a Transwell assay analyzed at 48 h (Corning, Corning City, N.Y.). Cell invasion in vitro was estimated using a Transwell assay, in which cells were seeded on Transwell columns coated with a Matrigel membrane (BD Biosciences, San Jose, Calif.). Then, cells on the bottom of membrane were counted after 96 h. […] Thus, miR-338-5p promotes CRC migration and invasion in vitro.

LC3-II = assay: Western blot of LC3-II (autophagy); conditions: 10 μM, 48 h, CRC cells (SW480, HCT116)
Protocol: (§1) FIGS. 14(a) to 14(f) show the involvement of autophagy in miR-338-5p-related CRC migration and invasion in vitro. […] LC3 puncta were labelled with anti-LC3 antibody and fluorescent isothiocyanate-conjugated goat anti-rabbit IgG (green fluorescence). SW480 cell nuclei were stained with Hoechst 33258 (blue fluorescence). Images were photographed using florescent microscopy (the scale bar represents 10 μm). Data are presented as median (IQR) (n=5) (P value was analyzed using Mann-Whitney tests). […] (100 nM). […] Data are presented as median (IQR) (n=5) (P value was analyzed using Mann-Whitney tests). The scale bar represents 50 μm. […] Number of migrated cells was counted after 24 h. The scale bar represents 100 μm. Data are expressed as median (IQR) (n=6) (P value was analyzed using MannWhitney tests). […] The scale bar represents 50 μm. Data are expressed as means±SEM (n=8) (P value was analyzed using t tests).
FIGS. 15(a) to 15(c) show the involvement of autophagy or EMT pathway in miR-338-5p-related CRC migration in vitro. […] Representative results of Transwell assays are also shown. […] Data are presented as means±SEM (n=8) (P values were analyzed using t tests). […] The number of migrated cells is shown as means±SEM (n=8) (P values were analyzed using t tests).
To clarify the mechanism(s) underlying miR-338-5p induced migration and invasion of CRC, the involvement of autophagy was assessed. […]

LC3 puncta = LC3 puncta formation by immunofluorescent assay; conditions: 10 μM, SW480 cells
Protocol: as §1
(§2) To clarify the mechanism(s) underlying miR-338-5p induced migration and invasion of CRC, the involvement of autophagy was assessed. Specifically, the LC3 puncta (microtubule associated protein 1A/1B-LC3) formation and LC3 type II (LC3-II) protein expression were examined in cells treated with amiodarone (an autophagy inducer) by immunofluorescent assay.

HCT116 cells [2] = assay: Transwell invasion assay, HCT116; conditions: amiodarone-treated HCT116 cells, Transwell invasion 48 h (FIG. 14(f))
Protocol: as §1, §2

SW480 cells = assay: Transwell migration assay, SW480; conditions: 10 μM, Transwell (FIG. 14(c))

What does the source list for `CCCCc1oc2ccccc2c1C(=O)c1cc(I)c(OCCN(CC)CC)c(I)c1` [Amiodarone, amiodarone]?
cell migration (HCT116 cells [1]): inhibition of cell migration; LC3-II expression (LC3-II): activated LC3-II expression; LC3 puncta formation (LC3 puncta): induced LC3 puncta formation; cell invasion (HCT116 cells [2]): inhibition of cell invasion; cell migration (SW480 cells): inhibition of cell migration

Reference: patent publication US11434537B2, “Biomarker for prognosis of colorectal cancer” (NATIONAL CHENG KUNG UNIVERSITY, priority 2020, dated 2022)
